The results in this text go back to US10408837B2 (priority 2013, dated 2019).

The target in this assay is BoNT/E (Clostridium botulinum, UniProt Q00496).

“And” between values parts separate entries of the source, which are not always exact repeats. Identical values can stand only once.

For IIIGNLGNEIDTQNRQIDRIMAKAKSKKR [Pep-52], the Relative product is 581 and 511.
